Reference: the NIST ThermoML archive (doi:10.1016/j.fluid.2015.03.025)
Numbers after ± are expanded uncertainties.

Experiment: xn = mol fraction of the nth substance listed
Details: 101 kPa, Liquid; for mass density: Buoyancy - hydrostatic balance; for electrical conductivity: Alternating current cell with electrodes; for viscosity: Capillary tube (Ostwald / Ubbelohde) method

C[N+](C)(C)CCO.[Cl-] [choline chloride] + OCCO
x1 = 0.5
Details	electrical conductivity [S/m]	mass density [kg/m3]	viscosity [mPa·s]
301.55 K	–	1048.21 ± 0.72	–
303.04 K	0.838 ± 0.008	–	–
307.95 K	–	1046.1 ± 0.71	–
308.15 K	0.917 ± 0.008	–	–
312.74 K	0.986 ± 0.008	–	–
313.15 K	–	1044.28 ± 0.71	25.3 ± 0.3
317.51 K	1.054 ± 0.008	–	–
317.55 K	–	1042.81 ± 0.71	–
318.15 K	–	–	21.7 ± 0.2
322.85 K	–	1041.05 ± 0.71	–
323.15 K	1.123 ± 0.008	–	18.3 ± 0.2
327.35 K	–	1039.36 ± 0.7	–
328.15 K	1.186 ± 0.008	–	16.3 ± 0.2
333.15 K	1.264 ± 0.008	–	14.4 ± 0.2
333.25 K	–	1036.72 ± 0.7	–
338.15 K	–	1034.68 ± 0.7	12.4 ± 0.1
343.15 K	1.414 ± 0.008	–	10.5 ± 0.1
347.85 K	–	1030.78 ± 0.69	–
348.15 K	–	–	9.6 ± 0.1
353.15 K	1.519 ± 0.008	1028.98 ± 0.69	8.7 ± 0.1

OCCN(CCO)CCO [triethanolamine] + C[N+](C)(C)CCO.[Cl-]
x2 = 0.5
Details	electrical conductivity [S/m]	mass density [kg/m3]	viscosity [mPa·s]
312.75 K	0.013 ± 0.008	–	–
313.15 K	–	1044.2 ± 0.34	83 ± 1
317.55 K	0.008 ± 0.008	–	–
318.15 K	–	–	64.8 ± 0.8
318.25 K	–	1042.56 ± 0.34	–
323.15 K	0.008 ± 0.008	–	44.9 ± 0.7
323.25 K	–	1040.96 ± 0.34	–
328.15 K	0.013 ± 0.008	–	39.9 ± 0.7
328.35 K	–	1039.12 ± 0.34	–
333.15 K	0.007 ± 0.008	–	33 ± 0.6
333.25 K	–	1037.41 ± 0.34	–
338.15 K	0.017 ± 0.008	–	27.2 ± 0.6
338.45 K	–	1035.68 ± 0.34	–
343.15 K	0.018 ± 0.008	–	21.3 ± 0.6
343.25 K	–	1034.09 ± 0.34	–
348.15 K	0.006 ± 0.008	–	18.8 ± 0.6
348.55 K	–	1032.59 ± 0.33	–
350.45 K	–	1032.09 ± 0.33	–
353.15 K	0.008 ± 0.008	1031.28 ± 0.33	–

O=C(O)C(=O)O [ethanedioic acid] + C[N+](C)(C)CCO.[Cl-]
x2 = 0.5
Details	electrical conductivity [S/m]	mass density [kg/m3]	viscosity [mPa·s]
300.15 K	–	1160.6 ± 0.93	–
303.05 K	0.483 ± 0.008	–	–
303.15 K	–	–	119.4 ± 2.1
304.15 K	–	1158.66 ± 0.93	–
308.15 K	0.56 ± 0.008	–	101.1 ± 1.6
312.75 K	0.638 ± 0.008	1153.06 ± 0.92	–
313.15 K	–	–	82.7 ± 1.2
317.55 K	0.727 ± 0.008	–	–
318.15 K	–	1150.57 ± 0.91	60.2 ± 0.8
323.15 K	0.808 ± 0.008	1148.23 ± 0.91	43.7 ± 0.7
328.15 K	0.886 ± 0.008	–	37 ± 0.7
328.65 K	–	1146.23 ± 0.91	–
333.15 K	0.981 ± 0.008	–	31.9 ± 0.7
334.15 K	–	1142.66 ± 0.9	–
343.15 K	1.144 ± 0.008	1137.16 ± 0.89	20.1 ± 0.6
348.15 K	–	–	16.8 ± 0.6
348.65 K	–	1135.11 ± 0.89	–
353.15 K	1.288 ± 0.008	1133.19 ± 0.89	14.3 ± 0.6
